Results reported in patent publication US20230158005A1 (priority 2020, published 2023).
Values joined by “and” are separate entries in the source; they are usually repeats but may differ in a detail not shown here. Identical values can stand only once.

How the values were obtained:
[1] = test system: A/Solomon Islands/03/2006 (H1N1); type: cell-based, influenza A virus
[2] = test system: A/Hawaii/15/2001 (H1N1); type: cell-based, influenza A virus
[3] = test system: A/California/07/2009 (H1N1); type: cell-based, influenza A virus
[4] = test system: A/Minnesota/19/2011 (H1N1); type: cell-based, influenza A virus
[5] = test system: A/New Jersey/8/1976 (H1N1); type: cell-based, influenza A virus
[6] = test system: A/USSR/90/1977 (H1N1); type: cell-based, influenza A virus
[7] = test system: A/Puerto Rico/8/1934 (H1N1); type: cell-based, influenza A virus
[8] = test system: A/New Caledonia/20/1999 (H1N1); type: cell-based, influenza A virus
[9] = test system: A/Indiana/08/2011 (H3N2); type: cell-based, influenza A virus
[10] = test system: A/California/02/2014 (H3N2); type: cell-based, influenza A virus
[11] = test system: A/Texas/71/2007 (H3N2); type: cell-based, influenza A virus
[12] = test system: A/Perth/16/2009 (H3N2); type: cell-based, influenza A virus
[13] = test system: A/Fujian/413/2002 (H3N2); type: cell-based, influenza A virus
[14] = test system: A/Alaska/140/2015 (H3N2); type: cell-based, influenza A virus
[15] = test system: A/Hong Kong/156/1997 (H5N1); type: cell-based, influenza A virus
[16] = test system: A/Egypt/N6658/2011 (H5N1); type: cell-based, influenza A virus
[17] = test system: A/Vietnam/1203/2004 (H5N1); type: cell-based, influenza A virus
[18] = test system: A/Indonesia/05/2005 (H5N1); type: cell-based, influenza A virus
[19] = test system: A/Anhui/1/2013 (H7N9); type: cell-based, influenza A virus
[20] = test system: panel of 20 influenza A viruses; type: cell-based, influenza A virus
[21] = test system: NL4-3 WT HIV-1 virus; test: Infectious HIV-1 released by infected MT-2 cells (TZM-bl luciferase reporter); type: cell-based; conditions: 10 nM, 48 hours
[22] = test system: MT-2 human T cell line; test: Cytotoxicity against uninfected MT-2 cells; type: cell-based; conditions: 1 µM, 48 hours
[23] = test system: Nipah virus (Malaysian strain); test: microbe, parasite or virus in culture; type: cell-based
[24] = test system: A549 human lung carcinoma cells; conditions: human
[25] = in vitro; conditions: human, % Dif (absorbance as percent relative to the vehicle control, relative viability)
[26] = in vitro; conditions: human
[27] = test system: relapsed/refractory, locally advanced or metastatic solid tumors; conditions: preliminary clinical results, cited from earlier work

CC1=C(COCCC(C)(C)C)C(=O)N(Nc2ccc(C(F)(F)F)c(Cl)n2)C1=O [felezonexor, 3-[(3,3-dimethylbutoxy)methyl]-1-{[6-chloro-5-(trifluoromethyl) (2-pyridyl)]amino}-4-methylazoline-2,5-dione]
Virus titer AVG [1]: 6.00 log10TCID50/mL and 7.17 log10TCID50/mL and 7.79 log10TCID50/mL
Virus titer, replicates 1-3 [1]: 6.50 log10TCID50/mL and 6.75 log10TCID50/mL and 7.38 log10TCID50/mL and 5.75 log10TCID50/mL (2×) and 7.50 log10TCID50/mL (2×) and 8.50 log10TCID50/mL and 7.25 log10TCID50/mL
Virus titer AVG [2]: 2.67 log10TCID50/mL and 3.67 log10TCID50/mL and 4.83 log10TCID50/mL
Virus titer, replicates 1-3 [2]: 2.50 log10TCID50/mL and 3.75 log10TCID50/mL (2×) and 4.75 log10TCID50/mL (2×) and 2.75 log10TCID50/mL (2×) and 3.50 log10TCID50/mL and 5.00 log10TCID50/mL
Virus titer AVG [3]: 2.75 log10TCID50/mL and 4.42 log10TCID50/mL and 5.42 log10TCID50/mL
Virus titer, replicates 1-3 [3]: 3.25 log10TCID50/mL and 4.25 log10TCID50/mL and 5.50 log10TCID50/mL and 2.50 log10TCID50/mL (2×) and 4.50 log10TCID50/mL (2×) and 5.75 log10TCID50/mL and 5.00 log10TCID50/mL
reduction in viral titers [3]: greater than 1.0 log10TCID50/mL
Virus titer, replicates 1-3 [4]: 2.50 log10TCID50/mL and 6.75 log10TCID50/mL (2×) and 7.25 log10TCID50/mL (2×) and 3.25 log10TCID50/mL and 8.50 log10TCID50/mL and 2.75 log10TCID50/mL and 9.25 log10TCID50/mL
reduction in viral titers [4]: greater than 1.0 log10TCID50/mL
Virus titer AVG [5]: 3.67 log10TCID50/mL and 4.00 log10TCID50/mL and 4.17 log10TCID50/mL
Virus titer, replicates 1-3 [5]: 3.75 log10TCID50/mL (3×) and 3.50 log10TCID50/mL (2×) and 4.25 log10TCID50/mL (3×) and 4.50 log10TCID50/mL
reduction in viral titers [5]: greater than 1.0 log10TCID50/mL
Virus titer, replicates 1-3 [6]: 1.50 log10TCID50/mL (3×) and 5.25 log10TCID50/mL and 5.75 log10TCID50/mL (3×) and 4.25 log10TCID50/mL (2×)
reduction in viral titers [6]: greater than 1.0 log10TCID50/mL
Virus titer AVG [7]: 3.42 log10TCID50/mL and 4.92 log10TCID50/mL
Virus titer, replicates 1-3 [7]: 3.50 log10TCID50/mL (2×) and 3.25 log10TCID50/mL (3×) and 4.75 log10TCID50/mL and 4.50 log10TCID50/mL and 3.75 log10TCID50/mL and 5.50 log10TCID50/mL
reduction in viral titers [7]: greater than 1.0 log10TCID50/mL
Virus titer AVG [8]: 7.17 log10TCID50/mL and 6.83 log10TCID50/mL and 7.00 log10TCID50/mL
Virus titer, replicates 1-3 [8]: 6.75 log10TCID50/mL (2×) and 7.25 log10TCID50/mL (2×) and 8.00 log10TCID50/mL and 6.50 log10TCID50/mL (3×) and 7.50 log10TCID50/mL
reduction in viral titers [8]: no reduction in viral titers
Virus titer, replicates 1-3 [9]: 3.25 log10TCID50/mL (2×) and 5.50 log10TCID50/mL (2×) and 6.75 log10TCID50/mL and 6.50 log10TCID50/mL and 7.50 log10TCID50/mL and 2.75 log10TCID50/mL and 8.50 log10TCID50/mL
reduction in viral titers [9]: greater than 1.0 log10TCID50/mL
Virus titer, replicates 1-3 [10]: 1.50 log10TCID50/mL (3×) and 5.25 log10TCID50/mL and 6.50 log10TCID50/mL (2×) and 4.75 log10TCID50/mL and 7.75 log10TCID50/mL and 4.50 log10TCID50/mL
reduction in viral titers [10]: greater than 1.0 log10TCID50/mL
Virus titer AVG [11]: 2.50 log10TCID50/mL and 3.33 log10TCID50/mL and 3.92 log10TCID50/mL
Virus titer, replicates 1-3 [11]: 3.25 log10TCID50/mL (2×) and 4.00 log10TCID50/mL and 3.75 log10TCID50/mL (2×) and 2.75 log10TCID50/mL (2×) and 1.50 log10TCID50/mL and 4.25 log10TCID50/mL
reduction in viral titers [11]: greater than 1.0 log10TCID50/mL
Virus titer, replicates 1-3 [12]: 2.25 log10TCID50/mL and 3.50 log10TCID50/mL (2×) and 4.75 log10TCID50/mL and 1.50 log10TCID50/mL and 4.25 log10TCID50/mL (2×) and 2.50 log10TCID50/mL and 3.25 log10TCID50/mL
Virus titer AVG [13]: 3.25 log10TCID50/mL and 3.50 log10TCID50/mL
Virus titer, replicates 1-3 [13]: 3.00 log10TCID50/mL and 3.25 log10TCID50/mL (3×) and 3.50 log10TCID50/mL (2×) and 3.75 log10TCID50/mL (2×) and 2.75 log10TCID50/mL
reduction in viral titers [13]: no reduction in viral titers
Virus titer, replicates 1-3 [14]: 1.50 log10TCID50/mL (4×) and 6.50 log10TCID50/mL and 2.50 log10TCID50/mL and 7.00 log10TCID50/mL and 2.25 log10TCID50/mL and 6.25 log10TCID50/mL
reduction in viral titers [14]: greater than 1.0 log10TCID50/mL
Virus titer AVG [15]: 2.42 log10TCID50/mL and 3.58 log10TCID50/mL and 4.50 log10TCID50/mL
Virus titer, replicates 1-3 [15]: 2.25 log10TCID50/mL (2×) and 3.50 log10TCID50/mL (2×) and 4.25 log10TCID50/mL and 2.75 log10TCID50/mL and 4.75 log10TCID50/mL and 3.75 log10TCID50/mL and 4.50 log10TCID50/mL
reduction in viral titers [15]: greater than 1.0 log10TCID50/mL
Virus titer AVG [16]: 4.08 log10TCID50/mL and 4.33 log10TCID50/mL and 4.92 log10TCID50/mL
Virus titer, replicates 1-3 [16]: 4.00 log10TCID50/mL and 4.25 log10TCID50/mL (2×) and 5.50 log10TCID50/mL and 4.50 log10TCID50/mL (3×) and 3.75 log10TCID50/mL and 4.75 log10TCID50/mL
reduction in viral titers [16]: greater than 1.0 log10TCID50/mL
Virus titer AVG [17]: 6.58 log10TCID50/mL and 8.50 log10TCID50/mL and 8.17 log10TCID50/mL
Virus titer, replicates 1-3 [17]: 6.50 log10TCID50/mL (2×) and 8.25 log10TCID50/mL (2×) and 8.50 log10TCID50/mL and 6.75 log10TCID50/mL and 7.75 log10TCID50/mL (2×) and 9.50 log10TCID50/mL
reduction in viral titers [17]: greater than 1.0 log10TCID50/mL
Virus titer AVG [18]: 4.83 log10TCID50/mL and 6.92 log10TCID50/mL and 7.58 log10TCID50/mL
Virus titer, replicates 1-3 [18]: 4.50 log10TCID50/mL and 6.50 log10TCID50/mL and 7.50 log10TCID50/mL (3×) and 5.25 log10TCID50/mL and 6.75 log10TCID50/mL and 4.75 log10TCID50/mL and 7.75 log10TCID50/mL
reduction in viral titers [18]: greater than 1.0 log10TCID50/mL
Virus titer AVG [19]: 1.50 log10TCID50/mL and 2.50 log10TCID50/mL and 2.67 log10TCID50/mL
Virus titer, replicates 1-3 [19]: 1.50 log10TCID50/mL (3×) and 2.25 log10TCID50/mL and 2.75 log10TCID50/mL (3×) and 2.50 log10TCID50/mL (2×)
reduction in viral titers [19]: greater than 1.0 log10TCID50/mL
strains with viral titers reduced at least 3-fold compared to untreated controls [20]: 17 out of 20 strains
strains with viral titers reduced at least 10-fold compared to untreated controls [20]: 13 out of 20 strains
reduction of the production of infectious virus [21]: more than 50%
MT-2 cells killed [22]: about 50%
selectivity index (SI, CC50/EC50) [23]: 12
EC50 ([23]; Henipavirus nipahense, HeLa, 48 h, read-out: EC50 (compound concentration that reduces viral replication by 50%)): 0.02 µM
tolerated concentration (relative viability equivalent or greater than untreated controls) [24]: up to 100 nM
% Dif (absorbance as percent relative to the vehicle control, relative viability) ([24]; 0.5 µM): 71.6%
viability at 0.05 µM [25]: 101%
viability at 0.1 µM [25]: 125%
viability at 0.25 µM [25]: 66.2%
viability at 0.5 µM [25]: 71.6%
viability at 1 µM [25]: 58.7%
CC50 [26]: 0.24 µM
Safety and tolerability ([27]; 57 patients with solid tumors): manageable
most common treatment related adverse events ([27]; 57 patients with solid tumors): gastrointestinal (nausea, vomiting, and diarrhea) and constitutional (fatigue, decreased appetite)
antitumor activity ([27]; 57 patients, heavily pre-treated solid tumors): durable responses, including a partial response
